Where two headings read alike, the source gives them in different places.
Experiments:
Format in all cases: biochemical
[1] = target: T1, cyclin D1/cdk 4 enzyme (Homo sapiens, UniProt P11802); test: CDK4 ELISA kinase assay (phospho-Rb ser 795 detection)
T1 construct: made in house; host or cells: Sf9 insect cells, recombinant baculovirus
Method in brief: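 GST-Rb C-terminal fragment coated on plates; partially purified Sf9-expressed cyclin D1/CDK4, cyclin E/CDK2 or cyclin B/CDK1 with 200 μM ATP, pH 7.5 HEPES/MgCl2 buffer, 1 h at 30 °C; screen compound final 10 μg/ml. Phospho-Rb Ser795 detected by antibody ELISA (TMB, A450); % of control, IC50 from background-subtracted inhibition curves.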

[2] = target: T2, cyclin E/CDK2 enzyme (Homo sapiens, UniProt P24941); test: CDK2 ELISA kinase assay (phospho-Rb ser 795 detection)
T2 construct: made in house; host or cells: Sf9 insect cells, recombinant baculovirus
Description: (§1) • 1. High-binding ELISA microtiter plates (Costar) were coated with 40 μl of the kinase substrate (GST fusion of C-terminal fragment of the retinoblastoma susceptibility gene product) diluted to 10 μg/ml in tris-buffered saline (TBS), overnight at 4° C. • 2. Non-specific binding sites were blocked for 1 hour at 4° C. with Superblock in TBS (Pierce), and the plates rinsed with water. • 3. For the screen, 1.5 μl of test compound (200 μg/ml stock in 20% DMSO/20 mM HEPES, pH 7.5) was added to each well. Final dose of the test compound in the assay was 10 ug/ml. […] The kinase reaction (30 μl) was dispensed into each well. Reactions contained 200 μM ATP, 0.5 mg/ml bovine serum albumin (BSA; Sigma), and 0.5 μl partially purified cyclin D1/cdk 4 enzyme*. The enzyme complex is expressed in insect cells (Sf9) infected with recombinant baculovirus and partially purified using ammonium sulfate fractionation. Reaction volumes were adjusted to 30 μl with kinase assay buffer (50 mM HEPES, pH 7.5, 10 mM MgCl2, 5% glycerol, 10 mM 2-mercaptoethanol). • *: For CDK2 assay, 1.0 μl cyclin E/CDK2 enzyme (diluted 1:1000 in kinase assay buffer) was used. The enzyme is isolated from insect cells (Sf9) infected with recombinant baculovirus and partially purified using ammonium sulfate fractionation. For CDK1 assay, 0.08 μl cyclin B/CDK1 enzyme [New England BioLabs; the enzyme is isolated from insect cells (Sf9) infected with recombinant baculovirus carrying human cdc 2 and human cyclin B] was used.
(§2) […] • 5. Plates were incubated at 30° C. for 1 hour. • 6. The reaction mixture was removed by aspiration and replaced with 250 μl TBS containing 0.1% Tween-20 and 5% nonfat dry milk (blocking buffer). The plates were incubated at 4° C. for 1 hour. • 7. The blocking buffer was removed and replaced with 50 μl of the primary antibody [anti-phospho-Rb ser 795 (New England BioLabs) diluted 1:1000 in blocking buffer]. Incubation was at 4° C. for 16-20 hours. • 8. The wells were rinsed 3 times with 250 μl of TBS containing 0.1% Tween-20 followed by the addition of 50 μl of secondary antibody [anti-rabbit IgG conjugated to horseradish peroxidase (Amersham Life Science) diluted 1:1000 in blocking buffer]. • 9. After a 1 hour incubation at room temperature, the wells were rinsed 3 times with 250 μl of TBS/0.1% Tween 20. • 10. TMB (3,3′,5,5′-tetramethylbenzidine dihydrochloride) substrate solution (100 μl; Pierce) was added to each well and the color development reaction allowed to proceed 5-10 minutes at room temperature with shaking. The reaction was stopped by the addition of 2N sulfuric acid (100 μl) and the absorbance values read at 450 nm in a microplate reader (Molecular Devices). Analysis of Results: • 1. The percentage of the absorbance value in wells containing the test compound relative to control wells (no test agent) was determined. • 2. IC50 values of selected compounds were determined from inhibition curves, after subtracting background values (no substrate).

[3] = target: T3, cyclin B/CDK1 enzyme (Homo sapiens, UniProt P06493); test: CDK1 ELISA kinase assay (phospho-Rb ser 795 detection)
T3 construct: purchased New England BioLabs; host or cells: Sf9 insect cells, recombinant baculovirus
T3 sequence (P06493 whole entry): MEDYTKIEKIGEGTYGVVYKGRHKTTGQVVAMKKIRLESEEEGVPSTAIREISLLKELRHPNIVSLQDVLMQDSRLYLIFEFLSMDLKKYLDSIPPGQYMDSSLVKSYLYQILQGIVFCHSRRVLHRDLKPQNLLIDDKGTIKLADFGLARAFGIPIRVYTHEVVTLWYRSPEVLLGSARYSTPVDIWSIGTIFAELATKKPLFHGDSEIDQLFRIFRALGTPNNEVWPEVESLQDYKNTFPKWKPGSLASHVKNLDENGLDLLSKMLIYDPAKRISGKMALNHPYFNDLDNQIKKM
T3 sequence (P14635 whole entry partner): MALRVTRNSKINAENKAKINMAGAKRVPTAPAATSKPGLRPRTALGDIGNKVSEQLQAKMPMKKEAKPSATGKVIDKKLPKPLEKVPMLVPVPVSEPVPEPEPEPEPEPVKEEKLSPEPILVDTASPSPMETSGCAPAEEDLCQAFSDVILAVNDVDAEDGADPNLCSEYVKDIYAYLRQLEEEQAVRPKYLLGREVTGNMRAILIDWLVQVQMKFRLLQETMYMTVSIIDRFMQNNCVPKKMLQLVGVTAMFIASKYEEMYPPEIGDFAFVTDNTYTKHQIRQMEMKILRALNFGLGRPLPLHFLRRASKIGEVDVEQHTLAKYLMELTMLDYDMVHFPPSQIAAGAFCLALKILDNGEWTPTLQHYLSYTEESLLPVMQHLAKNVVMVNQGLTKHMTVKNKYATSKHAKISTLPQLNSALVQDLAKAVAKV
Description: as §1, §2

[4] = In Vitro Enzyme Assay, cyclin D1/cdk 4, read-out: CDK4 IC50
[5] = In Vitro Enzyme Assay, cyclin E/CDK2, read-out: CDK2 IC50
[6] = In Vitro Enzyme Assay, cyclin B/CDK1, read-out: CDK1 IC50

T1 sequence (P11802 whole entry, species assumed): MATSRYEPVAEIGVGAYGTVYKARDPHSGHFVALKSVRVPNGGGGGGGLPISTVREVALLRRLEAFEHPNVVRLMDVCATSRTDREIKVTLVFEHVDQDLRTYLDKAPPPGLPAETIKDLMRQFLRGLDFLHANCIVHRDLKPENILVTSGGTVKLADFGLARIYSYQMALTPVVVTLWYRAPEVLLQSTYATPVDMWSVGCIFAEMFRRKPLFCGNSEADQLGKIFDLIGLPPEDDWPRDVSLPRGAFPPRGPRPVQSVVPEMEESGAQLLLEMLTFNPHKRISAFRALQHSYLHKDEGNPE
T1 sequence (P24385 whole entry partner, species assumed): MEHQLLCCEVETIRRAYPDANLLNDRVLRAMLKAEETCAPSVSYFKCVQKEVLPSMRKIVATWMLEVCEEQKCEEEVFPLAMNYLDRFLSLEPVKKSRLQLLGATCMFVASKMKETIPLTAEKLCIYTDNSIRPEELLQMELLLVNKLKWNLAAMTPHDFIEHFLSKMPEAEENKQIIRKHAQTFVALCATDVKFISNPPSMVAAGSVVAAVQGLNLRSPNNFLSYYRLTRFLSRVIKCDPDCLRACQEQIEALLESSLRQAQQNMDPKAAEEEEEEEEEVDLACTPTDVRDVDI

IC50 ([1]; In Vitro Enzyme Assays, 200 μM ATP, read-out: CDK4 IC50) [µM]	IC50 ([2]; In Vitro Enzyme Assays, read-out: CDK2 IC50) [µM]	IC50 ([3]; In Vitro Enzyme Assays, read-out: CDK1 IC50) [µM]	IC50 [1, 4] [µM]	IC50 [2, 5] [µM]	IC50 [3, 6] [µM]	Structure (SMILES)
–	–	–	0.19	23.1	> 50	NS(=O)(=O)c1ccc(CNC=C2C(=O)NC(=O)c3ccc(C=Cn4ccnc4)cc32)cc1 [Example 658, 4-({[6-(2-Imidazol-1-yl-vinyl)-1,3-dioxo-2,3-dihydro-1H-isoquinolin-4-ylidenemethyl]-amino}-methyl)-benzenesulfonamide]
–	–	–	0.01	6.3	> 50	O=C1NC(=O)c2ccc(C=Cc3ccncc3)cc2C1=CNCc1ccc(O)c(O)c1 [Example 663, 4-[(3,4-Dihydroxy-benzylamino)-methylene]-6-(2-pyridin-4-yl-vinyl)-4H-isoquinoline-1,3-dione]
–	–	–	0.57	7.7	12.3	N#Cc1ccc(-c2ccc3c(c2)C(=CNCc2ccc(S(N)(=O)=O)cc2)C(=O)NC3=O)cc1 [Example 755, 4-({[6-(4-Cyano-phenyl)-1,3-dioxo-2,3-dihydro-1H-isoquinolin-4-ylidenemethyl]-amino}-methyl)-benzenesulfonamide]
–	–	–	0.09	13.8	18.5	O=C1NC(=O)c2ccc(-c3ccc(C(=O)O)cc3)cc2C1=CNCc1ccc(O)c(O)c1 [Example 770, 4-{4-[(3,4-Dihydroxy-benzylamino)-methylene]-1,3-dioxo-1,2,3,4-tetrahydro-isoquinolin-6-yl}-benzoic acid]
–	–	–	0.2	14.1	> 50	CC(=O)c1ccc(-c2ccc3c(c2)C(=CNCc2ccc(O)c(O)c2)C(=O)NC3=O)cc1 [Example 775, 6-(4-Acetyl-phenyl)-4-[(3,4-dihydroxy-benzylamino)-methylene]-4H-isoquinoline-1,3-dione]

The remaining lines, values behind:

Structure (SMILES)	IC50 ([1]; In Vitro Enzyme Assays, 200 μM ATP, read-out: CDK4 IC50) [µM]	IC50 ([2]; In Vitro Enzyme Assays, read-out: CDK2 IC50) [µM]	IC50 ([3]; In Vitro Enzyme Assays, read-out: CDK1 IC50) [µM]	IC50 [1, 4] [µM]	IC50 [2, 5] [µM]	IC50 [3, 6] [µM]
CCCOc1ccc(CN/C=C2\C(=O)NC(=O)c3ccc(Br)cc32)cc1C(=O)O [Example 352, 5-({[(Z)-(6-Bromo-1,3-dioxo-2,3-dihydroisoquinolin-4(1H)-ylidene)methyl]amino}methyl)-2-propoxybenzoic acid]	1.9	12	22.6	–	–	–
N=C(N)c1ccc(NC=C2C(=O)NC(=O)c3ccccc32)cc1 [Example 547, 4-[(1,3-Dioxo-2,3-dihydro-1H-isoquinolin-4-ylidenemethyl)-amino]-benzamidine]	–	–	–	13.2	6.6	> 50
N#CCc1ccc(NC=C2C(=O)NC(=O)c3ccccc32)cc1 [Example 555, {4-[(1,3-Dioxo-2,3-dihydro-1H-isoquinolin-4-ylidenemethyl)-amino]-phenyl}-acetonitrile]	–	–	–	14.7	21.3	45
O=C1NC(=O)c2ccccc2C1=CNc1ccc(O)c(C(=O)O)c1 [Example 563, 5-[(1,3-Dioxo-2,3-dihydro-1H-isoquinolin-4-ylidenemethyl)-amino]-2-hydroxy-benzoic acid]	–	–	–	8.2	15.1	18.5
O=C1NC(=O)c2ccccc2C1=CNCC(O)c1ccc(O)c(O)c1 (stereo not drawn) [Example 564, 4-{[2-(3,4-Dihydroxy-phenyl)-2-hydroxy-ethylamino]-methylene}-4H-isoquinoline-1,3-dione]	–	–	–	12.8	13.8	16.9
O=C1NC(=O)c2ccccc2C1=CNC(Cc1ccc(O)c(O)c1)C(=O)O (stereo not drawn) [Example 567, 3-(3,4-Dihydroxy-phenyl)-2-[(1,3-dioxo-2,3-dihydro-1H-isoquinolin-4-ylidenemethyl)-amino]-propionic acid]	–	–	–	11.9	16.2	17.7
NS(=O)(=O)c1ccc(CNC=C2C(=O)NC(=O)c3ccc(C=Cc4ccncc4)cc32)cc1 [Example 653, 4-({[1,3-Dioxo-6-(2-pyridin-4-yl-vinyl)-2,3-dihydro-1H-isoquinolin-4-ylidenemethyl]-amino}-methyl)-benzenesulfonamide]	–	–	–	0.21	45.5	> 50

— US7713994B2 (Wyeth LLC, priority 2005, dated 2010)
